Experimental data: US9376442B2, “Methylpyrrolopyrimidinecarboxamides” (Takeda GmbH, priority 2009, dated 2016)

Tests used:
PDE5A1 = molecular target: T1, PDE5A1 (Homo sapiens, UniProt O76074); experiment: Inhibition of type 5 phosphodiesterase (PDE5) activity, modified SPA test with human platelet lysate; assay type: biochemical; conditions: 0.5 μM cGMP, read-out: PDE5A1 inhibitory values [measured as −log IC50 (mol/l)] (converted)
T1 construct: from tissue; host or cells: human platelets from fresh donor blood (10,000 x g supernatant of sonicated lysate)
How it was run: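 Scintillation proximity assay with [3H]cGMP tracer at 0.5 μM total cGMP, stopped after 15 min with beads containing IBMX. PDE3 and PDE2 activities suppressed with motapizone (1 μM) and a PDE2 inhibitor (10 nM). Human platelet supernatant served as the enzyme, with compound preincubated 5 min at 37° C; IC50 values from concentration-effect curves.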

PDE4B1 = molecular target: T2, PDE4B1 (Homo sapiens, UniProt Q07343); experiment: Inhibition of type 4 phosphodiesterase (PDE4) activity, modified SPA test with recombinant PDE4B1 expressed in SF21 insect cells; assay type: biochemical; conditions: recombinant PDE4B1, 0.5 μM cAMP, read-out: PDE4B1 inhibitory values [measured as −log IC50 (mol/l)] (converted)
T2 construct: made in house; host or cells: SF21 insect cells (baculovirus; pCRBac vector), 1000 x g supernatant of homogenate
Protocol: Method for Measuring Inhibition of the Type 4 Phosphodiesterase (PDE4) Activity:
The PDE4B1 (GB no. L20966) was a gift of Prof. M. Conti (Stanford University, USA). It was amplified from the original plasmid (pCMV5) via PCR with primers Rb18 (5′-[…]-3′) and Rb10 (5′-[…]-3′) and cloned into the pCRBac vector (Invitrogen, Groningen, NL).
The recombinant baculovirus was prepared by means of homologous recombination in SF9 insect cells. The expression plasmids were cotransfected with Baculo-Gold DNA (Pharmingen, Hamburg) using a standard protocol (Pharmingen, Hamburg). Wt virus-free recombinant virus supernatants were selected using plaque assay methods. After that, high-titre virus supernatants were prepared by amplifying 3 times. PDE4B1 was expressed in SF21 cells by infecting 2×10^6 cells/ml with an MOI (multiplicity of infection) between 1 and 10 in the serum-free medium Insect Express Sf9-S2 (PAA, Pasching, Austria). The cells were cultured at 28° C. for 48-72 hours, after which they were pelleted for 5-10 min at 1000×g and 4° C.
The SF21 insect cells were resuspended, at a concentration of approx. 10^7 cells/ml, in ice-cold (4° C.) homogenization buffer (20 mM Tris, pH 8.2, containing the following additions: 140 mM NaCl, 3.8 mM KCl, 1 mM EGTA, 1 mM MgCl2, 10 mM (3-mercaptoethanol, 2 mM benzamidine, 0.4 mM Pefablock, 10 μM leupeptin, 10 μM pepstatin A, 5 μM trypsin inhibitor) and disrupted by ultrasonication. The homogenate was then centrifuged for 10 min at 1000×g and the supernatant was stored at −80° C. until subsequent use (see below). The protein content was determined by the Bradford method (BioRad, Munich) using BSA as the standard.
PDE4B1 activity was inhibited by the compounds according to the present subject matter in a modified SPA (scintillation proximity assay) test, supplied by Amersham Biosciences (see procedural instructions “phosphodiesterase [3H]cAMP SPA enzyme assay, code TRKQ 7090”), carried out in 96-well microtitre plates (MTP's). The test volume is 100 μl and contains 20 mM Tris buffer (pH 7.4), 0.1 mg/ml of BSA, 5 mM Mg^2+, 0.5 μM cAMP (including about 50,000 cpm of [3H]cAMP), 1 μl of the respective substance dilution in DMSO and sufficient recombinant PDE (1000×g supernatant, see above) to ensure that 10-20% of the cAMP is converted under the said experimental conditions. […] After a preincubation of 5 min at 37° C., the reaction is started by adding the substrate (cAMP) and the assays are incubated for a further 15 min; after that, they are stopped by adding SPA beads (50 μl). In accordance with the manufacturer's instructions, the SPA beads had previously been resuspended in water, but were then diluted 1:3 (v/v) in water; the diluted solution also contains 3 mM IBMX to ensure a complete PDE activity stop. After the beads have been sedimented (>30 min), the MTP's are analyzed in commercially available luminescence detection devices. The corresponding IC50 values of the compounds for the inhibition of PDE4B1 activity are determined from the concentration-effect curves by means of non-linear regression.

T2 sequence (Q07343 whole entry): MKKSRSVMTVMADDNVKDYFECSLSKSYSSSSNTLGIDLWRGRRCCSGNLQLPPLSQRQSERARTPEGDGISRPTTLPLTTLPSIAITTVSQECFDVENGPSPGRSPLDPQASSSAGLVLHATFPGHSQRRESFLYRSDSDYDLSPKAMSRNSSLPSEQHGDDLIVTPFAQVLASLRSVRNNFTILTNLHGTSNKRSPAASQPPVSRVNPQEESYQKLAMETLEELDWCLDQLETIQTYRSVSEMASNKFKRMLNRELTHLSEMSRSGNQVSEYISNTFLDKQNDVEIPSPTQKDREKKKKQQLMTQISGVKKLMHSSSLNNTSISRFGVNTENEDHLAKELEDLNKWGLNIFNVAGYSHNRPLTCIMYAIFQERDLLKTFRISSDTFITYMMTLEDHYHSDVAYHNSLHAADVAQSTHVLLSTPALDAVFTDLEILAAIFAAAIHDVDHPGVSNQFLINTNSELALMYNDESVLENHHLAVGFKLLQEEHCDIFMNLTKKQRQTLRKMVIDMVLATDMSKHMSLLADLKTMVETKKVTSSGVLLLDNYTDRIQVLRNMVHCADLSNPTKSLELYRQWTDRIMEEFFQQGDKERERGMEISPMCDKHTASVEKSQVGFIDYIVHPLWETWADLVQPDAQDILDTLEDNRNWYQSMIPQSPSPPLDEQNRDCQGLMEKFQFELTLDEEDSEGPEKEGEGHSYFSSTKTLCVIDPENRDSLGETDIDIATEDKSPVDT

For `Cc1ccc(OCC2CC2)c(-c2ncnc3c(C(=O)NC4CCN(C(=O)CO)CC4)c(C)[nH]c23)c1` [Example F51], the IC50 (PDE5A1) was < 1 nM and the IC50 (PDE4B1) was < 100 nM.

`COc1ccc(OCC2CC2)c(-c2ncnc3c(C(=O)NC4CCN(C(C)=O)CC4)c(C)[nH]c23)c1` [Example E66, N-(1-acetylpiperidin-4-yl)-4-[2-(cyclopropylmethoxy)-5-methoxyphenyl]-6-methyl-5H-pyrrolo[3,2-d]pyrimidine-7-carboxamide] was tested, and the IC50 (PDE5A1) was < 1 nM and the IC50 (PDE4B1) was 100 to 1000 nM.

`CCC(=O)N[C@H]1CC[C@@H](NC(=O)c2c(C)[nH]c3c(-c4cc(OC)ccc4OCC4CC4)ncnc23)CC1` [Example E73, 4-[2-(Cyclopropylmethoxy)-5-methoxyphenyl]-6-methyl-N-[cis-4-(propionylamino)cyclohexyl]-5H-pyrrolo[3,2-d]pyrimidine-7-carboxamide] was tested, and the IC50 (PDE5A1) was < 1 nM and the IC50 (PDE4B1) was 100 to 1000 nM.

With `CCC(=O)N[C@H]1CC[C@H](NC(=O)c2c(C)[nH]c3c(-c4cc(C(F)F)ccc4OCC4CC4)ncnc23)C[C@H]1F` (relative stereo) [Example P200, 4-[2-(Cyclopropylmethoxy)-5-(difluoromethyl)phenyl]-N-[(1S*,3R*,4S*)-3-fluoro-4-(propanoylamino)cyclohexyl]-6-methyl-5H-pyrrolo[3,2-d]pyrimidine-7-carboxamide] the IC50 (PDE5A1) was < 1 nM and the IC50 (PDE4B1) was < 100 nM.

For `COCC(=O)N1CCC(NC(=O)c2c(C)[nH]c3c(-c4cc(C)ccc4OCC4CC4)ncnc23)CC1` [Example E83, 4-[2-(cyclopropylmethoxy)-5-methylphenyl]-N-[1-(methoxyacetyl)piperidin-4-yl]-6-methyl-5H-pyrrolo[3,2-d]pyrimidine-7-carboxamide], the IC50 (PDE5A1) was < 1 nM and the IC50 (PDE4B1) was < 100 nM.

In the case of `COCC(=O)N[C@H]1CC[C@H](NC(=O)c2c(C)[nH]c3c(-c4cc(C(F)F)ccc4OCC4CC4)ncnc23)CC1` [Example P8, 4-[2-(Cyclopropylmethoxy)-5-(difluoromethyl)phenyl]-N-{trans-4-[(methoxyacetyl)amino]cyclohexyl}-6-methyl-5H-pyrrolo[3,2-d]pyrimidine-7-carboxamide], the IC50 (PDE5A1) is reported as < 1 nM and the IC50 (PDE4B1) is reported as < 100 nM.

For `COc1ccc(OCC2CC2)c(-c2ncnc3c(C(=O)NC4CCN(C(=O)[C@H](C)O)CC4)c(C)[nH]c23)c1` [Example F42, 4-[2-(Cyclopropylmethoxy)-5-methoxyphenyl]-N-{1-[(2S)-2-hydroxypropanoyl]piperidin-4-yl}-6-methyl-5H-pyrrolo[3,2-d]pyrimidine-7-carboxamide], the IC50 (PDE5A1) was < 1 nM and the IC50 (PDE4B1) was 100 to 1000 nM.

With `CCC(=O)N1CCC(NC(=O)c2c(C)[nH]c3c(-c4cc(C(F)F)ccc4OCC4CC4)ncnc23)CC1` [Example P2, 4-[2-(Cyclopropylmethoxy)-5-(difluoromethyl)phenyl]-6-methyl-N-(1-propanoylpiperidin-4-yl)-5H-pyrrolo[3,2-d]pyrimidine-7-carboxamide] the IC50 (PDE5A1) was < 1 nM and the IC50 (PDE4B1) was < 100 nM.

For `CCC(=O)N[C@H]1CC[C@H](NC(=O)c2c(C)[nH]c3c(-c4cc(C(F)(F)F)ccc4OCC4CC4)ncnc23)CC1` [Example E94, 4-[2-(cyclopropylmethoxy)-5-(trifluoromethyl)phenyl]-6-methyl-N-[trans-4-(propanoylamino)cyclohexyl]-5H-pyrrolo[3,2-d]pyrimidine-7-carboxamide], the IC50 (PDE5A1) was < 1 nM and the IC50 (PDE4B1) was < 100 nM.

In the case of `CCc1ccc(OCC2CC2)c(-c2ncnc3c(C(=O)NC4CCC(NC(=O)C(C)O)CC4)c(C)[nH]c23)c1` (stereo not drawn) [Example F96, 4-[2-(Cyclopropylmethoxy)-5-ethylphenyl]-N-(cis-4-{[(25)-2-hydroxypropanoyl]amino}cyclohexyl)-6-methyl-5H-pyrrolo[3,2-d]pyrimidine-7-carboxamide], the IC50 (PDE5A1) is reported as < 1 nM and the IC50 (PDE4B1) is reported as < 100 nM.

For `CCC(=O)N1CCC(NC(=O)c2c(C)[nH]c3c(-c4cc(CC)ccc4OCC4CC4)ncnc23)CC1` [Example E146, 4-[2-(Cyclopropylmethoxy)-5-ethylphenyl]-6-methyl-N-(1-propanoylpiperidin-4-yl)-5H-pyrrolo[3,2-d]pyrimidine-7-carboxamide], the IC50 (PDE5A1) was < 1 nM and the IC50 (PDE4B1) was 100 to 1000 nM.

In the case of `COc1ccc(OCC2CC2)c(-c2ncnc3c(C(=O)NC4CCN(C(=O)CO)CC4)c(C)[nH]c23)c1` [Example F41, 4-[2-(Cyclopropylmethoxy)-5-methoxyphenyl]-N-(1-glycoloylpiperidin-4-yl)-6-methyl-5H-pyrrolo[3,2-d]pyrimidine-7-carboxamide], the IC50 (PDE5A1) is reported as < 1 nM and the IC50 (PDE4B1) is reported as 100 to 1000 nM.

In the case of `CC(=O)N1CCC(NC(=O)c2c(C)[nH]c3c(-c4cc(C(C)C)ccc4OCC4CC4)ncnc23)CC1` [Example E157, N-(1-Acetylpiperidin-4-yl)-4-[2-(cyclopropylmethoxy)-5-(propan-2-yl)phenyl]-6-methyl-5H-pyrrolo[3,2-d]pyrimidine-7-carboxamide], the IC50 (PDE5A1) is reported as < 1 nM and the IC50 (PDE4B1) is reported as 100 to 1000 nM.

For `CC(=O)N[C@H]1CC[C@H](NC(=O)c2c(C)[nH]c3c(-c4cc(C(F)F)ccc4OCC4CC4)ncnc23)[C@H](F)C1` (relative stereo) [Example P169, N-[(1S*,2R*,4S*)-4-(Acetylamino)-2-fluorocyclohexyl]-4-[2-(cyclopropylmethoxy)-5-(difluoromethyl)phenyl]-6-methyl-5H-pyrrolo[3,2-d]pyrimidine-7-carboxamide], the IC50 (PDE5A1) was < 1 nM and the IC50 (PDE4B1) was < 100 nM.

`CCc1ccc(OCC2CC2)c(-c2ncnc3c(C(=O)N[C@H]4CC[C@@H](NC(=O)COC)CC4)c(C)[nH]c23)c1` [Example E153, 4-[2-(Cyclopropylmethoxy)-5-ethylphenyl]-N-{cis-4-[(methoxyacetyl)amino]cyclohexyl}-6-methyl-5H-pyrrolo[3,2-d]pyrimidine-7-carboxamide] was tested, and the IC50 (PDE5A1) was < 1 nM and the IC50 (PDE4B1) was 100 to 1000 nM.

`Cc1ccc(OCC2CC2)c(-c2nc(C)nc3c(C(=O)NC4CCN(C(=O)CO)CC4)c(C)[nH]c23)c1` [Example F106, 4-[2-(Cyclopropylmethoxy)-5-methylphenyl]-N-[1-(hydroxyacetyl)piperidin-4-yl]-2,6-dimethyl-5H-pyrrolo[3,2-d]pyrimidine-7-carboxamide] was tested, and the IC50 (PDE5A1) was < 1 nM and the IC50 (PDE4B1) was 100 to 1000 nM.

With `CCC(=O)N[C@H]1CC[C@@H](NC(=O)c2c(C)[nH]c3c(-c4cc(CC)ccc4OCC4CC4)ncnc23)CC1` [Example E152, 4-[2-(Cyclopropylmethoxy)-5-ethylphenyl]-6-methyl-N-[cis-4-(propanoylamino)cyclohexyl]-5H-pyrrolo[3,2-d]pyrimidine-7-carboxamide] the IC50 (PDE5A1) was < 1 nM and the IC50 (PDE4B1) was 100 to 1000 nM.

`COc1ccc(OCC2CC2)c(-c2ncnc3c(C(=O)N[C@H]4CC[C@H](NC(=O)CO)CC4)c(C)[nH]c23)c1` [Example F43, 4-[2-(Cyclopropylmethoxy)-5-methoxyphenyl]-N-[trans-4-(glycoloylamino)cyclohexyl]-6-methyl-5H-pyrrolo[3,2-d]pyrimidine-7-carboxamide] was tested, and the IC50 (PDE5A1) was < 1 nM and the IC50 (PDE4B1) was 100 to 1000 nM.

In the case of `COCC(=O)N1CCC(NC(=O)c2c(C)[nH]c3c(-c4cc(C(F)(F)F)ccc4OCC4CC4)ncnc23)CC1` [Example E92, 4-[2-(Cyclopropylmethoxy)-5-(trifluoromethyl)phenyl]-N-[1-(methoxyacetyl)piperidin-4-yl]-6-methyl-5H-pyrrolo[3,2-d]pyrimidine-7-carboxamide], the IC50 (PDE5A1) is reported as < 1 nM and the IC50 (PDE4B1) is reported as < 100 nM.
